The subject of test [1] is human umbilical vein endothelial cells (HUVECs). The test can be described thus: Apoptosis of HUVECs (flow cytometry, DNA Ladder, RT-PCR, Western blotting). It is filed as cell-based. To be noted: 50 μg/ml PBS, 96 hours. On the procedure:
Human umbilical cord samples (obtained from Beijing Obstetrics & Gynecology Hospital) was digested with 0.1% collagenase I (available from GIBCO BRL company), followed by a centrifugation (1000 rpm, 10 minutes) to collect human umbilical vein endothelial cells (HUVECs). After suspended in 20% FCS/RPMI1640, the cells were transferred into plastic bottles for culture in CO2 incubator (37° C., 5% CO2). Twelve hours later, unattached cells were discarded by changing medium, and then the remaining cells were cultured conventionally with the medium changed every 3 days. The vehicle (PBS) and FpAT (50 μg/ml PBS) were added separately, and the cells were collected at 96 hours. Flow Cytometry: the cells were digested with 0.04% trypsin-EDTA, collected and washed 3 times with PBS; the cells were suspended by adding 200 μl PBS and aspirated gently to avoid formation of cell mass. 800 μl cold absolute alcohol was added, and then the cells was fixed at 4° C. overnight; and after a centrifugation at 1000×g for 5 min at 4° C., and the supernatant were discarded. The cells were washed twice with PBS, re-suspended with 200 μl PBS containing RNaseA at a concentration of 1 mg/ml, and incubated at 37° C. for 30 minutes. PI staining solution (final concentration of 50 μg/ml) was added, and the well mixed cells were subjected to a reaction at 4° C. for 30 minutes in the dark. The detection was performed on a flow cytometer. DNA Ladder analysis: the cells differently treated (PBS and FpAT) were collected by a centrifugation at 1000 rpm for 5 minutes, and the cells were lysed with lysis solution (10 mM Tris-HCl, 5 mM EDTA, 1% Triton-X 100, 10 mM NaCl, 100 μg/ml protease K), and aspirated repeatedly to cut viscous genomic DNA, which theoretically generates DNA fragments in a uniform size of 20 to 30 kb; phenols and chloroform were used to extract, and after precipitated with absolute ethanol, the total DNA were dissolved in TE or water, and treated with Rnase A at 37° C. for 1˜2 hours. Five microliters was taken for an electrophoresis on 1.8% agarose gel. […]
A general note: A flow cytometer gives signals particle by particle.

The subject of test [2] is mouse liver cancer H22 cells. The test can be described thus: Tumor suppression in liver cancer H22 cells tumor-bearing mouse model (Example 4). Type of test: in vivo, mice of Kunming strain. To be noted: 50 m/1000 PBS/injection, angulus oculi medialis vein daily, 7 times; vs PBS control, P<0.05. The protocol:
(§1) To confirm the biological effects of FpAT on the growth of mice deriving tumor in mice in vivo, a tumor suppression experiment was carried out in this example using liver cancer H22 cells tumor-bearing mouse model of mice of Kunming strain and osteosarcoma S180 cells tumor-bearing mouse model of mice of Kunming strain. Forty 5-week old mice of Kunming strain purchased from Animal Center Of Chinese Academy Of Medical Sciences were inoculated subcutaneously in forelimb with mouse liver cancer H22 cells (National Institute for the Control of Pharmaceutical and Biological Products) (5×10^6/100 μl/mouse) or osteosarcoma S180 cells (National Institute for the Control of Pharmaceutical and Biological Products) (5×10^6/100 μl/mouse). On the next day after inoculation, each kind of inoculated cells were divided into 2 groups randomly with 10 mice per group. FpAT ([…]) or vehicle (the solvent for peptide) control (PBS:100 μl/injection) were injected in angulus oculi medialis vein daily, 7 times in total. The mice were sacrificed by dislocating the neck on the next day after administration was stopped, and the tumors were taken and weighed for a statistical analysis.

Another test concerns tumor microvessel. The test can be described thus: Tumor microvessel density (MVD) by factor VIII immunohistochemistry. Type of test: in vivo, mice. On the procedure:
In order to confirm that the suppression of FpAT on tumor growth in mice in vivo is achieved by suppressing angiogenesis, an analysis of microvessel density in tumor was performed in this example by using tumor mass in Examples 4 and 5.
The tumor masses were fixed with formaldehyde, and then cut into serial section of 3 μm. The paraffin sections were dewaxed to water, and incubated in 3% H2O2 at room temperature for 10 minutes, to which rabbit anti-human factor VIII polyclonal antibody (DAKO company) was added dropwise, and after left at 4° C. overnight; 1:200 sheep anti-rabbit IgG labeled with biotin (Beijing ZhongShan bioengineering Company) was added dropwise, and incubated at 37° C. for 30 minutes. […] Then a visual field with most interstitial blood vessels of cancer nest was chosen, and under a ×400 magnitude field, 3 visual fields were counted by 3 observers individually according to double blind method; wherein individual cells and cell clusters stained brown were observed and taken as one blood vessel, whereas blood vessel cavities and erythrocytes therein were not counted, and blood vessel or vessel cavities in muscular layer larger than 50 μm were excluded. The average value of numbers counted by 3 individuals was taken as MVD (microvessel density) result of this case for a statistics analysis, see Table 4.

The next test has as its system osteosarcoma S180 cells. Put plainly: Tumor suppression in osteosarcoma S180 cells tumor-bearing mouse model (Example 4). Type of test: in vivo, mice of Kunming strain. To be noted: 50 m/1000 PBS/injection, angulus oculi medialis vein daily, 7 times; vs PBS control, P<0.05. The protocol:
as §1

For “H2N-Asp-Ser-Gly-Glu-Gly-Asp-Phe-Leu-Ala-Glu-Gly-Gly-Gly-Val-Arg-COOH (H-DSGEGDFLAEGGGVR-OH; listed as Homo sapiens) [FpAT, fibrinopeptide A truncated, carboxyl terminal 15 amino acids of fibrinopeptide A]”, in test [1], the “DNA Ladder in total DNA of HUVECs” value is reported as “presence of plenty of DNA Ladder”. Further, the “apoptosis of HUVECs by flow cytometry” value in test [1] (PI staining) is “presence of an evidence apoptosis peak”. In addition, the “effect on cell cycle of HUVECs” value in test [1] (flow cytometry) was “no remarkable effects on cell cycle”. Also, the “growth of mouse liver cancer H22 cells in vivo (tumor mass)” value in test [2] is “could suppressed the growths”. Besides, the MVD in the test on tumor microvessel (tumor mass of Examples 4 and 5, 20 visual fields observed totally, PBS group 6.4) is reported as 2.6 Number of micro vessel/visual field. Moreover, the “growth of microvessel in tumor tissue” value in the test with tumor microvessel (vs PBS control group, P<0.05) was “suppressed significantly the growth of microvessel”. Besides, the “growth of osteosarcoma S180 cells in vivo (tumor mass)” value in the test on osteosarcoma S180 cells is “could suppressed the growths”.

Source of the values: patent US8377883B2, “Peptide for anti-angiogenesis and use thereof” (Beijing Institute for Cancer Research, priority 2006, dated 2013).
